EP3696177A1, “HETEROCYCLIC COMPOUNDS FOR THE CONTROL OF INVERTEBRATE PESTS” (BASF SE, priority 2019, dated 2020)

Key:
Type in all cases: in vivo
Anthonomus grandis = assay: Boll weevil (Anthonomus grandis) insect diet microtiter plate test; conditions: 120 h, read-out: mortality in comparison with untreated controls (egg and larval mortality)
Method: For evaluating control of boll weevil (Anthonomus grandis) the test unit consisted of 96-well-microtiter plates containing an insect diet and 5-10 A. grandis eggs.
The compounds were formulated using a solution containing 75% v/v water and 25% v/v DMSO. Different concentrations of formulated compounds were sprayed onto the insect diet at 5 µl, using a custom built micro atomizer, at two replications.
After application, microtiter plates were incubated at about 25 + 1°C and about 75 + 5 % relative humidity for 5 days. Egg and larval mortality was then visually assessed.

Tetranychus kanzawai = assay: Red spider mite (Tetranychus kanzawai) spray test on cowpea beans; conditions: topical, 72 h, read-out: mortality in comparison with untreated controls
Method: The active compound is dissolved at the desired concentration in a mixture of 1:1 (vol:vol) distilled water: acetone. Add surfactant (Kinetic) is added at a rate of 0.01% (vol/vol). The test solution is prepared at the day of use.
Potted cowpea beans of 4-5 days of age are cleaned with tap water and sprayed with 1-2 ml of the test solution using air driven DeVilbiss® hand atomizer at 20- 30 psi (≈ 1,38 to 2,07 bar). The treated plants are allowed to air dry and afterwards inoculated with 30 or more mites by clipping a cassava leaf section from rearing population. Treated plants are placed inside a holding room at about 25-26°C and about 65-70% relative humidity. Estimate percent mortality is assessed 72 hours after treatment.

Plutella xylostella = assay: Diamond back moth (Plutella xylostella) cabbage leaf disc dip test; conditions: foliar, 72 h, read-out: mortality in comparison with untreated controls
Method: The active compound is dissolved at the desired concentration in a mixture of 1:1 (vol:vol) distilled water: acetone. Surfactant (Kinetic) is added at a rate of 0.01% (vol/vol). The test solution is pre-pared at the day of use.
Cabbage leaf discs (60mm in diameter) are dipped in test solution and air-dried. Treated leaves are placed in petri dishes lined with moistened filter paper and inoculated with ten 3rd instar larvae. Mortality is recorded 72 hours after treatment. Feeding damage is also recorded using a scale of 0-100%.

dichromothrips corbetti = assay: Orchid thrips floral-immersion test; conditions: 72 h, read-out: mortality in comparison with untreated controls
Method: Dichromothrips corbetti adults used for bioassay are obtained from a colony maintained continu-ously under laboratory conditions. For testing purposes, the test compound is diluted in a 1:1 mix-ture of acetone:water (vol:vol), plus Kinetic at a rate of 0.01% v/v.
Thrips potency of each compound is evaluated by using a floral-immersion technique. Each orchid petal is dipped into treatment solution and allowed to dry in Petri dishes. Treated petals are placed into individual re-sealable plastic along with about 20 adult thrips. All test arenas are held under dark condition and a temperature of about 28°C for duration of the assay. The percent mor-tality is recorded 72 hours after treatment.

Nephotettix virescens = assay: Rice green leafhopper (Nephotettix virescens) spray test on rice seedlings; conditions: adults, after 72 hours, read-out: mortality in comparison with untreated controls
Method: Four to five-week old rice seedlings with cut upper leaf portion are cleaned and washed 24 hours before spraying. The active compounds are formulated in 1:1 acetone:water (vol:vol), and 0.01% vol/vol surfactant (Kinetic) is added. Potted rice seedlings are sprayed with 5-6 ml test solution, air dried, covered with Mylar cages and inoculated with 10 adults. Treated rice plants are kept at about 28-29°C and relative humidity of about 50-60%. Percent mortality is recorded after 72 hours.

Megoura viciae = assay: Vetch aphid (Megoura viciae) broad bean leaf disk test; conditions: foliar, 120 h, read-out: mortality in comparison with untreated controls
Method: For evaluating control of vetch aphid (Megoura viciae) through contact or systemic means the test unit consisted of 24-well-microtiter plates containing broad bean leaf disks.
The compounds were formulated using a solution containing 75% v/v water and 25% v/v DMSO. Different concentrations of formulated compounds were sprayed onto the leaf disks at 2.5 µl, us-ing a custom built micro atomizer, at two replications.
After application, the leaf disks were air-dried and 5 - 8 adult aphids placed on the leaf disks in-side the microtiter plate wells. The aphids were then allowed to suck on the treated leaf disks and incubated at about 23 + 1°C and about 50 + 5 % relative humidity for 5 days. Aphid mortality and fecundity was then visually assessed.

Aedes aegypti = assay: whole plant or invertebrate; conditions: 48 h, A. aegypti larvae, incubated 2 days, read-out: mortality in comparison with untreated controls (larval mortality)
Method: For evaluating control of yellow fever mosquito (Aedes aegypti) the test unit consisted of 96-well-microtiter plates containing 200µl of tap water per well and 5-15 freshly hatched A. aegypti larvae.
The active compounds were formulated using a solution containing 75% (v/v) water and 25% (v/v) DMSO. Different concentrations of formulated compounds or mixtures were sprayed onto the insect diet at 2.5µl, using a custom built micro atomizer, at two replications.
After application, microtiter plates were incubated at 28 + 1°C, 80 + 5 % RH for 2 days. Larval mortality was then visually assessed.

Myzus persicae = assay: Green peach aphid (Myzus persicae) artificial diet/membrane systemic test; conditions: 72 h, read-out: mortality in comparison with untreated controls
Excerpt: For evaluating control of green peach aphid (Myzus persicae) through systemic means the test unit consisted of 96-well-microtiter plates containing liquid artificial diet under an artificial membrane.
The compounds were formulated using a solution containing 75% v/v water and 25% v/v DMSO. Different concentrations of formulated compounds were pipetted into the aphid diet, using a cus-tom built pipetter, at two replications.
After application, 5 - 8 adult aphids were placed on the artificial membrane inside the microtiter plate wells. The aphids were then allowed to suck on the treated aphid diet and incubated at about 23 + 1°C and about 50 + 5 % relative humidity for 3 days. Aphid mortality and fecundity was then visually assessed.

Heliothis virescens = assay: Tobacco budworm (Heliothis virescens) insect diet microtiter plate test; conditions: 120 h, read-out: mortality in comparison with untreated controls (egg and larval mortality)
Method: For evaluating control of tobacco budworm (Heliothis virescens) the test unit consisted of 96-well-microtiter plates containing an insect diet and 15-25 H. virescens eggs.
The compounds were formulated using a solution containing 75% v/v water and 25% v/v DMSO. Different concentrations of formulated compounds were sprayed onto the insect diet at 10 µl, us-ing a custom built micro atomizer, at two replications.
After application, microtiter plates were incubated at about 28 + 1°C and about 80 + 5 % relative humidity for 5 days. Egg and larval mortality was then visually assessed.

Nezara viridula = assay: Green soldier stink bug (Nezara viridula) soybean pod spray test; conditions: 120 h, late 3rd instar N. viridula, after 5 days, read-out: mortality in comparison with untreated controls
Method: The active compound is dissolved at the desired concentration in a mixture of 1:1 (vol:vol) distilled water: aceteone. Surfactant (Kinetic) is added at a rate of 0.01% (vol/vol).The test solution is prepared at the day of use.
Soybean pods are placed in 90 x 50 mm glass Petri dishes lined with moistened filter paper and inoculated with ten late 3rd instar N. viridula. Using a hand atomizer, an approximately 2 ml solution is sprayed into each Petri dish. Treated set-up is kept at about 25-26°C and relative humidity of about 65-70%. Percent mortality is recorded after 5 days.

Caenorhabditis elegans = Caenorhabditis elegans liquid diet microtiter plate test; conditions: 96 h, read-out: mortality in comparison with untreated controls (nematode motility (mortality))
Method: For evaluating control of Caenorhabditis elegans through contact or systemic means the test unit consisted of 96-well-microtiter plates containing a liquid diet.
The compounds or mixtures were formulated using a solution containing 75% water and 25% DMSO. Different concentrations of formulated compounds were sprayed into the microtiter plate wells at 5µl per well, using a custom built micro atomizer, at two replications. Mixed instar 60-100 C. elegans were transferred into the micro-titer plate wells. After application, the nematodes were incubated at 18 + 1°C, 70 + 5 % RH for 4 days. Nematode motility (mortality) was then visually assessed.

Aphis craccivora = assay: Cowpea aphid (Aphis craccivora) spray test on potted cowpea plants; conditions: aphids of various stages, after 72 hours, read-out: mortality in comparison with untreated controls
Method: The active compound is dissolved at the desired concentration in a mixture of 1:1 (vol: vol) distilled water: acetone. Surfactant (Kinetic) is added at a rate of 0.01% (vol/vol). The test solution is prepared at the day of use.
Potted cowpea plants are colonized with approximately 30 - 50 aphids of various stages by man-ually transferring aphid-infested leaf clippings 24 hours before application. Plants are sprayed with the test solutions using a DeVilbiss® hand atomizer at 20- 30 psi (≈ 1.38 to 2.07 bar) after the pest population has been checked. Treated plants are maintained on light carts at about 25- 26°C. Estimate percent mortality is assessed after 72 hours.

CN1C(=O)SC(NC(=O)c2ccc(C3=NOC(c4cc(Cl)cc(C(F)(F)F)c4)(C(F)(F)F)C3)c3c2CCC3)C1=O (stereo not drawn) [Compound I-1-8]
> 75%: mortality at 2500 ppm (Anthonomus grandis) | mortality at 300 ppm (Tetranychus kanzawai) | mortality at 300 ppm (Plutella xylostella) | mortality at 300 ppm (dichromothrips corbetti) | mortality at 300 ppm (Nephotettix virescens) | mortality at 2500 ppm (Megoura viciae) | mortality at 2500 ppm (Aedes aegypti) | mortality at 2500 ppm (Myzus persicae) | mortality at 2500 ppm (Heliothis virescens) | mortality at 300 ppm (Nezara viridula)

Cc1cc(C2=NOC(c3cc(Cl)cc(Cl)c3)(C(F)(F)F)C2)ccc1C(=O)NCC1OC(=O)N(C)C1=O (stereo not drawn) [Compound I-4-4]
> 75%: mortality at 2500 ppm (Anthonomus grandis) | mortality at 300 ppm (Tetranychus kanzawai) | mortality at 300 ppm (Plutella xylostella) | mortality at 300 ppm (dichromothrips corbetti) | mortality at 2500 ppm (Megoura viciae) | mortality at 2500 ppm (Caenorhabditis elegans) | mortality at 2500 ppm (Aedes aegypti) | mortality at 2500 ppm (Myzus persicae) | mortality at 2500 ppm (Heliothis virescens)

CC(C)N1C(=O)SC(NC(=O)c2ccc(C3=NOC(c4cc(Cl)cc(Cl)c4)(C(F)(F)F)C3)cc2Cl)C1=O (stereo not drawn) [Compound I-1-3]
> 75%: mortality at 2500 ppm (Anthonomus grandis) | mortality at 300 ppm (Tetranychus kanzawai) | mortality at 300 ppm (Plutella xylostella) | mortality at 300 ppm (dichromothrips corbetti) | mortality at 2500 ppm (Megoura viciae) | mortality at 2500 ppm (Caenorhabditis elegans) | mortality at 2500 ppm (Aedes aegypti) | mortality at 2500 ppm (Myzus persicae) | mortality at 2500 ppm (Heliothis virescens) | mortality at 300 ppm (Nezara viridula)

Cc1cc(C2=NOC(c3cc(Cl)cc(Cl)c3)(C(F)(F)F)C2)ccc1C(=O)NCC1OCN(C)C1=O (stereo not drawn) [Compound I-3-11]
> 75%: mortality at 300 ppm (Aphis craccivora) | mortality at 2500 ppm (Anthonomus grandis) | mortality at 300 ppm (Tetranychus kanzawai) | mortality at 300 ppm (Plutella xylostella) | mortality at 300 ppm (dichromothrips corbetti) | mortality at 2500 ppm (Megoura viciae) | mortality at 2500 ppm (Caenorhabditis elegans) | mortality at 2500 ppm (Aedes aegypti) | mortality at 2500 ppm (Myzus persicae) | mortality at 2500 ppm (Heliothis virescens)

Cc1cc(C2=NOC(c3cc(Cl)cc(Cl)c3)(C(F)(F)F)C2)ccc1C(=O)NC1SC(=O)N(C(C)C)C1=O (stereo not drawn) [Compound I-1-6]
> 75%: mortality at 300 ppm (Aphis craccivora) | mortality at 2500 ppm (Anthonomus grandis) | mortality at 300 ppm (Plutella xylostella) | mortality at 300 ppm (dichromothrips corbetti) | mortality at 300 ppm (Nephotettix virescens) | mortality at 2500 ppm (Megoura viciae) | mortality at 2500 ppm (Aedes aegypti) | mortality at 2500 ppm (Myzus persicae) | mortality at 2500 ppm (Heliothis virescens) | mortality at 300 ppm (Nezara viridula)

Cc1cc(C2=NOC(c3cc(Cl)cc(Cl)c3)(C(F)(F)F)C2)ccc1C(=O)NC1SC(=O)N(C)C1=O (stereo not drawn) [Compound I-1-4, 4-[5-(3,5-dichlorophenyl)-5-(trifluoromethyl)-4H-isoxazol-3-yl]-2-methyl-N-(3-methyl-2,4-dioxo-thiazolidin-5-yl)benzamide]
> 75%: mortality at 2500 ppm (Anthonomus grandis) | mortality at 300 ppm (Tetranychus kanzawai) | mortality at 300 ppm (Plutella xylostella) | mortality at 300 ppm (dichromothrips corbetti) | mortality at 300 ppm (Nephotettix virescens) | mortality at 2500 ppm (Megoura viciae) | mortality at 2500 ppm (Aedes aegypti) | mortality at 2500 ppm (Myzus persicae) | mortality at 2500 ppm (Heliothis virescens) | mortality at 300 ppm (Nezara viridula)

O=C(NCC1OCN(CC2CC2)C1=O)c1ccc(C2=NOC(c3cc(Cl)c(F)c(Cl)c3)(C(F)(F)F)C2)c2c1CCC2 (stereo not drawn) [Compound I-3-2]
> 75%: mortality at 2500 ppm (Anthonomus grandis) | mortality at 300 ppm (Tetranychus kanzawai) | mortality at 300 ppm (Plutella xylostella) | mortality at 300 ppm (dichromothrips corbetti) | mortality at 300 ppm (Nephotettix virescens) | mortality at 2500 ppm (Megoura viciae) | mortality at 2500 ppm (Caenorhabditis elegans) | mortality at 2500 ppm (Aedes aegypti) | mortality at 2500 ppm (Myzus persicae) | mortality at 2500 ppm (Heliothis virescens)
